# Data from patent US20240132431A1, “METHOD FOR ALKYLATING ACIDIC FUNCTIONAL GROUP” (Chugai Seiyaku Kabushiki Kaisha, priority 2021, published 2024).
# Assays:
# [1] = target: T1, Bcl-2 protein (Recombinant Human Bcl-2 Protein) (Homo sapiens, UniProt P10415); test: Binding evaluation of mixture library compounds to Bcl-2 using AS-MS (affinity selection mass spectrometry); conditions: for ASMS ratio (%) n = 1 / ASMS ratio (%) n = 2: ASMS Ratio(%)=(A−C)/B×100; for ASMS ratio (%) n = 1: replicate n = 1; for ASMS ratio (%) n = 2: replicate n = 2
# T1 construct: purchased Novus NBP2-34889
# T1 sequence (P10415 whole entry): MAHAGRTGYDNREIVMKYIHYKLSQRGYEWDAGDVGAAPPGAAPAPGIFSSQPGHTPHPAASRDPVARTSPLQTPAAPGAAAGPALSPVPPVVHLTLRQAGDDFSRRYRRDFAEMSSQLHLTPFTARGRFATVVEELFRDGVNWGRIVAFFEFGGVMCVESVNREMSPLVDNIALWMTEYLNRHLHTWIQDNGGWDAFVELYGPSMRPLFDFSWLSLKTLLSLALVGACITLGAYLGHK
# Outline: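 Affinity selection MS: Bcl-2 20 μM + 1200-cpd mixture, […]/cpd, Tris pH 7.4 buffer w/ Tween-20, DTT; 1 h 23° C dark; P-2 spin SEC; MeCN/MeOH extraction; RP LC/MS. ASMS Ratio(%) = (A−C)/B×100.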
# human Bcl-2 protein = target: T2, human Bcl-2 protein (Homo sapiens, UniProt P10415); test: Binding evaluation of compounds to Bcl-2 by surface plasmon resonance (SPR); conditions: Biacore T200, biotinylated human Bcl-2 immobilized on Sensor Chip SA, 15° C., compounds found by AS-MS evaluation of synthesized library
# T2 construct: purchased Novus Biologicals
# T2 sequence (P10415 whole entry): as above
# Protocol: In order to analyze the binding affinity of the compounds shown in [Table AK-O1] and synthesized in Example 8 to Bcl-2, the surface plasmon resonance method was used. Biacore T200 (GE Healthcare) was used as the apparatus, and HBS (10 mM HEPES-NaOH, 150 mM NaCl, pH 7.4) to which 1 mM DTT, 3 mM EDTA, 0.01% Tween 20, and 4% DMSO had been added was used as the running buffer. The human Bcl-2 protein (Novus Biologicals) was biotinylated using EZ-Link Sulfo-NHS-LC-LC-biotin (Thermofisher scientific) and immobilized on the surface of Sensor Chip SA (GE Healthcare). Thereafter, compound solutions of multiple concentrations and the running buffer (blank) were added to the Bcl-2 immobilized surface to obtain the binding response of the compounds. The measurement was carried out at 15° C.
# [2] = AS-MS, mixture of 1200 compounds, Bcl-2
# [3] = first value in parentheses, (A−C)/B×100, 1200-compound mixture, Bcl-2 20 μM
# [4] = second value in parentheses, (A−C)/B×100, 1200-compound mixture, Bcl-2 20 μM
# [5] = AS-MS on the mixture of 1200 library compounds
Molecule,"ASMS ratio (%) n = 1 [1, 2]","ASMS ratio (%) n = 2 [1, 2]","ASMS ratio (%) n = 1 [1, 5]","ASMS ratio (%) n = 2 [1, 5]",further results
"CCOc1cccc(-c2ccc(CN3CCN(c4ccc(C(=O)NS(=O)(=O)c5ccc(NCCSc6ccccc6)c([N+](=O)[O-])c5)cc4)CC3)c(OC)c2)c1 [B2Q053-01, 4-[4-[[4-(3-ethoxyphenyl)-2-methoxyphenyl]methyl]piperazin-1-yl]-N-[3-nitro-4-(2-phenylsulfanylethylamino)phenyl]sulfonylbenzamide]",,,,,"ASMS ratio (%) n = 1 ([1]; AS-MS, mixture library, Bcl-2): 22.4%; ASMS ratio (%) n = 2 ([1]; AS-MS, mixture library, Bcl-2): 15.5%; ASMS ratio (%) [1, 3]: 22.4%; ASMS ratio (%) [1, 4]: 15.5%; Equilibrium dissociation constant KD (human Bcl-2 protein): Binding not observed"
CCCNC(=O)c1ccc(N2CCN(Cc3cc(OC(F)(F)F)cc(-c4cccc(OCC)c4)c3)CC2)nn1 [B1M033-01],0.3%,0.0%,,,
6-[4-[3-[4-(5-Ethoxypyridin-3-yl)pyrazol-1-yl]-5-(trifluoromethyl)benzoyl]piperazin-1-yl]-N-propylpyridazine-3-carboxamide [B1M030-01],0.0%,−5.9%,,,
"CCOc1cccc(C#Cc2cc(C(=O)N3CCN(c4ccc(C(=O)NS(=O)(=O)c5ccc(NCCSc6ccccc6)c([N+](=O)[O-])c5)nn4)CC3)cc(C(F)(F)F)c2)c1 [B2Q019-01, 6-[4-[3-[2-(3-Ethoxyphenyl)ethynyl]-5-(trifluoromethyl)benzoyl]piperazin-1-yl]-N-[3-nitro-4-(2-phenylsulfanylethylamino)phenyl]sulfonylpyridazine-3-carboxamide]",,,,,"ASMS ratio (%) n = 1 ([1]; AS-MS, mixture library, Bcl-2): 0.7%; ASMS ratio (%) n = 2 ([1]; AS-MS, mixture library, Bcl-2): 14.1%"
"CCOc1cncc(-c2cc(OC)c(CN3CCN(c4ccc(C(=O)N(C)CC56CC7CC(CC(C7)C5)C6)cc4)CC3)c(OC)c2)c1 [B3A060-01, N-(1-Adamantylmethyl)-4-[4-[[4-(5-ethoxypyridin-3-yl)-2,6-dimethoxyphenyl]methyl]piperazin-1-yl]-N-methylbenzamide]",,,0.9%,0.0%,
4-[4-[4-(5-Ethoxypyridin-3-yl)naphthalene-1-carbonyl]piperazin-1-yl]-N-propylbenzamide [B1M074-01],−1.6%,0.9%,,,
"CCOc1cccc(-c2ccc(CN3CCN(c4ccc(C(=O)NCC(F)(F)F)nn4)CC3)c3ccccc23)c1 [B1K091-01, 6-[4-[[4-(3-Ethoxyphenyl)naphthalen-1-yl]methyl]piperazin-1-yl]-N-(2,2,2-trifluoroethyl)pyridazine-3-carboxamide]",3.6%,−4.2%,,,
"CCOc1cncc(-c2cc(C(=O)N3CCN(c4ccc(C(=O)NS(=O)(=O)CC56CC7CC(CC(C7)C5)C6)cc4)CC3)cc(C(F)(F)F)c2)c1 [B2A040-01, N-(1-Adamantylmethylsulfonyl)-4-[4-[3-(5-ethoxypyridin-3-yl)-5-(trifluoromethyl)benzoyl]piperazin-1-yl]benzamide]",,,,,"ASMS ratio (%) n = 1 ([1]; AS-MS, mixture library, Bcl-2): 0.0%; ASMS ratio (%) n = 2 ([1]; AS-MS, mixture library, Bcl-2): 0.0%"
"CCOc1cncc(-c2ccc(C(=O)N3CCN(c4ccc(C(=O)NS(C)(=O)=O)cc4)CC3)cc2F)c1 [B2I028-01, 4-[4-[4-(5-Ethoxypyridin-3-yl)-3-fluorobenzoyl]piperazin-1-yl]-N-methylsulfonylbenzamide]",,,,,"ASMS ratio (%) n = 1 ([1]; AS-MS, mixture library, Bcl-2): 0.0%; ASMS ratio (%) n = 2 ([1]; AS-MS, mixture library, Bcl-2): 0.0%"
"CCOc1cccc(-c2cc(OC)c(CN3CCN(c4ccc(C(=O)NCC56CC7CC(CC(C7)C5)C6)nn4)CC3)c(OC)c2)c1 [B1A085-01, N-(1-Adamantylmethyl)-6-[4-[[4-(3-ethoxyphenyl)-2,6-dimethoxyphenyl]methyl]piperazin-1-yl]pyridazine-3-carboxamide]",10.6%,10.8%,,,
"CCOc1cncc(C#Cc2ccccc2C(=O)N2CCN(c3ccc(C(=O)N(C)CC45CC6CC(CC(C6)C4)C5)nn3)CC2)c1 [B3A008-01, N-(1-Adamantylmethyl)-6-[4-[2-[2-(5-ethoxypyridin-3-yl)ethynyl]benzoyl]piperazin-1-yl]-N-methylpyridazine-3-carboxamide]",,,0.6%,−0.3%,
"CCOc1cncc(-c2ccc(C(=O)N3CCN(c4ccc(C(=O)NCC(F)(F)F)nn4)CC3)cc2F)c1 [B1K006-01, 6-[4-[4-(5-Ethoxypyridin-3-yl)-3-fluorobenzoyl]piperazin-1-yl]-N-(2,2,2-trifluoroethyl)pyridazine-3-carboxamide]",−0.6%,0.0%,,,
"CCOc1cncc(-c2ccc(C(=O)N3CCN(c4ccc(C(=O)NS(=O)(=O)C(C)(C)C)cc4)CC3)cc2F)c1 [B2L028-01, N-tert-Butylsulfonyl-4-[4-[4-(5-ethoxypyridin-3-yl)-3-fluorobenzoyl]piperazin-1-yl]benzamide]",,,,,ASMS ratio (%) ([1]; n = 1): 0.0%; ASMS ratio (%) ([1]; n = 2): 0.0%
"CCOc1cccc(-c2csc(C(=O)N3CCN(c4ccc(C(=O)Nc5ccc(OC)cc5)nn4)CC3)c2)c1 [B1O001-01, 6-[4-[4-(3-Ethoxyphenyl)thiophene-2-carbonyl]piperazin-1-yl]-N-(4-methoxyphenyl)pyridazine-3-carboxamide]",,,−0.1%,−3.1%,
"CCOc1cccc(C#Cc2ccccc2CN2CCN(c3ccc(C(=O)N(CC)CC)nn3)CC2)c1 [B4J095-01, 6-[4-[[2-[2-(3-Ethoxyphenyl)ethynyl]phenyl]methyl]piperazin-1-yl]-N,N-diethylpyridazine-3-carboxamide]",,,,,"ASMS ratio (%) n = 1 ([1]; AS-MS, mixture library, Bcl-2): 1.5%; ASMS ratio (%) n = 2 ([1]; AS-MS, mixture library, Bcl-2): 0.0%"
"CCOc1cncc(-c2ccc(CN3CCN(c4ccc(C(=O)NS(C)(=O)=O)nn4)CC3)c(OC)c2)c1 [B2I080-01, 6-[4-[[4-(5-Ethoxypyridin-3-yl)-2-methoxyphenyl]methyl]piperazin-1-yl]-N-methylsulfonylpyridazine-3-carboxamide]",,,,,ASMS ratio (%) ([1]; n = 1): 0.0%
"CCOc1cccc(-c2ccc(CN3CCN(c4ccc(C(=O)N(C)CC56CC7CC(CC(C7)C5)C6)nn4)CC3)cc2F)c1 [B3A077-01, N-(1-Adamantylmethyl)-6-[4-[[4-(3-ethoxyphenyl)-3-fluorophenyl]methyl]piperazin-1-yl]-N-methylpyridazine-3-carboxamide]",,,4.1%,−2.8%,

# Continued, in another order:
"ASMS ratio (%) n = 1 [1, 2]","ASMS ratio (%) n = 2 [1, 2]","ASMS ratio (%) n = 1 [1, 5]","ASMS ratio (%) n = 2 [1, 5]",Molecule,further results
31.3%,28.6%,,,"CCOc1cccc(-c2ccc(CN3CCN(c4ccc(C(=O)NCC56CC7CC(CC(C7)C5)C6)nn4)CC3)c(CC)c2)c1 [B1A075-01, N-(1-adamantylmethyl)-6-[4-[[4-(3-ethoxyphenyl)-2-ethylphenyl]methyl]piperazin-1-yl]pyridazine-3-carboxamide]","ASMS ratio (%) [1, 3]: 31.3%; ASMS ratio (%) [1, 4]: 28.6%; Equilibrium dissociation constant KD (human Bcl-2 protein): Binding not observed"
,,31.3%,28.6%,"CCOc1cccc(-c2ccc(CN3CCN(c4ccc(C(=O)N(C)CC56CC7CC(CC(C7)C5)C6)nn4)CC3)cc2C)c1 [B3A073-01, N-(1-adamantylmethyl)-6-[4-[[4-(3-ethoxyphenyl)-3-methylphenyl]methyl]piperazin-1-yl]-N-methylpyridazine-3-carboxamide]","ASMS ratio (%) [1, 3]: 31.3%; ASMS ratio (%) [1, 4]: 28.6%; Equilibrium dissociation constant KD (human Bcl-2 protein): Binding not observed"
,,1.1%,1.3%,"CCOc1cncc(C#Cc2ccccc2C(=O)N2CCN(c3ccc(C(=O)Nc4ccc(OC)cc4)nn3)CC2)c1 [B1O008-01, 6-[4-[2-[2-(5-Ethoxypyridin-3-yl)ethynyl]benzoyl]piperazin-1-yl]-N-(4-methoxyphenyl)pyridazine-3-carboxamide]",
,,0.5%,−1.5%,"CCCNC(=O)c1ccc(N2CCN(Cc3ccc(-c4cncc(OCC)c4)cc3OC)CC2)nn1 [B1M100-01, 6-[4-[[4-(5-Ethoxypyridin-3-yl)-2-methoxyphenyl]methyl]piperazin-1-yl]-N-propylpyridazine-3-carboxamide]",
,,9.7%,4.4%,"CCOc1cccc(-c2ccc(C(=O)N3CCN(c4ccc(C(=O)N(C)CC56CC7CC(CC(C7)C5)C6)cc4)CC3)c3ccccc23)c1 [B3A035-01, N-(1-Adamantylmethyl)-4-[4-[4-(3-ethoxyphenyl)naphthalene-1-carbonyl]piperazin-1-yl]-N-methylbenzamide]",
1.0%,0.4%,,,CCCNC(=O)c1ccc(N2CCN(Cc3cc(-c4cccc(OCC)c4)cc(C(F)(F)F)c3)CC2)nn1 [B1M027-01],
